Reference: PMC7395068, “The evolution of strategies to minimise the risk of human drug-induced liver injury (DILI) in drug discovery and development” (Archives of Toxicology, 2020)
Where two headings read alike, the source gives them in different places.

How the values were obtained:
human hepatocytes = settings: cited from earlier work
hLiMTs [1] = test: Combined HCI (HCS) and cellular ATP 3D assay in hLiMTs; settings: for AC50 / minimal effective concentration: Homo sapiens
PHH spheroids = settings: cited from earlier work
hLiMTs [2] = settings: cited from earlier work
[3] = cited from earlier work
[4] = ref Chen 2011; cited from earlier work
[5] = test system: THLE or HepG2 cells, isolated mitochondria, BSEP; settings: cited from earlier work
[6] = cited from earlier work; remark: listed apart in the source
PHH = settings: cited from earlier work
[7] = test system: primary human hepatocytes, NIH3T3 fibroblasts, BSEP, CYP3A4; settings: cited from earlier work
rBsep = settings: In vitro Assay; ref Dawson 2012; cited from earlier work
[8] = test system: HepG2 cells, primary human hepatocytes; settings: In vitro Assay; ref Garside 2014; cited from earlier work
[9] = plasma free fraction; cited from earlier work
HepG2 cells = settings: cited from earlier work
[10] = test system: THLE-Null and THLE-3A4 cells; settings: In vitro Assay; ref Gustafsson 2014; cited from earlier work
[11] = Plasma free fraction (fu) and unbound Cmax (Cmax,u); type: in vitro ADME, human; settings: unbound plasma Cmax
[12] = test system: HepG2 C3A spheroid, BSEP, Glu/Gal in HepG2 cells, bioactivation; settings: cited from earlier work
[13] = read-out: Human plasma Cmax; total plasma Cmax.tot, median of 9 literature references; cited from earlier work
HepaRG spheroids = test: Combined HCI (HCS) and cellular ATP 3D assay in HepaRG spheroids; settings: for AC50 / minimal effective concentration: Homo sapiens
[14] = Microtissue model structural based (HCI), combined HCS and ATP, MEC < 25 × Cmax.tot cut-off
[15] = In vitro Assay, ref Proctor 2017
[16] = Modeled in vitro assays (cytotoxicity, mitochondrial dysfunction, BSEP), ref Aleo et al. 2019
[17] = In vitro Assay, ref Schadt 2015
[18] = In vitro Assay, ref Persson 2013

hLiMTs <25x Avg Cmax ATP (hLiMTs [1]; hLiMTs, ATP endpoint, cut-off <25x Avg Cmax): +ve | hLiMTs <100x Avg Cmaxu ATP (hLiMTs [1]; hLiMTs, ATP endpoint, cut-off <100x Avg Cmaxu): -ve | hLiMTs <25x Avg Cmax HCS (hLiMTs [1]; hLiMTs, HCS endpoints, cut-off <25x Avg Cmax): +ve | hLiMTs <100x Avg Cmaxu HCS (hLiMTs [1]; hLiMTs, HCS endpoints, cut-off <100x Avg Cmaxu): -ve | hLiMTs <25x Avg Cmax All (hLiMTs [1]; hLiMTs, all endpoints (ATP and HCS), cut-off <25x Avg Cmax): +ve | hLiMTs Cmax max All (hLiMTs [1]; hLiMTs, all endpoints, Cmax max used): +ve | hLiMTs Cmax min All (hLiMTs [1]; hLiMTs, all endpoints, Cmax min used): +ve | hLiMTs <10 uM All (hLiMTs [1]; hLiMTs, all endpoints, cut-off <10 uM): +ve (<10 uM) | hLiMTs <100x Avg Cmaxu All (hLiMTs [1]; hLiMTs, all endpoints, cut-off <100x Avg Cmaxu): -ve | Human plasma Cmax,u [11]: 0.043 µM | HepaRG <25x Avg Cmax ATP (HepaRG spheroids; HepaRG, ATP endpoint, cut-off <25x Avg Cmax): +ve | HepaRG <100x Avg Cmaxu ATP (HepaRG spheroids; HepaRG, ATP endpoint, cut-off <100x Avg Cmaxu): -ve | HepaRG <25x Avg Cmax HCS (HepaRG spheroids; HepaRG, HCS endpoints, cut-off <25x Avg Cmax): +ve | HepaRG <100x Avg Cmaxu HCS (HepaRG spheroids; HepaRG, HCS endpoints, cut-off <100x Avg Cmaxu): -ve | HepaRG <25x Avg Cmax All (HepaRG spheroids; HepaRG, all endpoints (ATP and HCS), cut-off <25x Avg Cmax): +ve | HepaRG Cmax max All (HepaRG spheroids; HepaRG, all endpoints, Cmax max used): +ve | HepaRG Cmax min All (HepaRG spheroids; HepaRG, all endpoints, Cmax min used): +ve | HepaRG <10 uM All (HepaRG spheroids; HepaRG, all endpoints, cut-off <10 uM): +ve (<10 uM) | HepaRG <100x Avg Cmaxu All (HepaRG spheroids; HepaRG, all endpoints, cut-off <100x Avg Cmaxu): -ve
Compound: CCc1nn(CCCN2CCN(c3cccc(Cl)c3)CC2)c(=O)n1CCOc1ccccc1 [nefazodone, reference compound]
Structural based (HCI) (human hepatocytes; In vitro Assay, ref Xu 2008): +VE | DILI in vitro assay prediction, Xu (2008) (human hepatocytes; Structural based (HCI), human hepatocytes, ref Xu et al. 2008): +VE | AC50 (hLiMTs [1]; read-out: ATP endpoint AC50): 12.1 µM | minimal effective concentration (hLiMTs [1]; read-out: ATP endpoint MEC): 8.98 µM | AC50 (hLiMTs [1]; read-out: HCS endpoint AC50): 23.4 µM | minimal effective concentration (hLiMTs [1]; read-out: HCS endpoint MEC): 13.8 µM | DILI prediction hLiMTs (HCS-MEC) (hLiMTs [1]; [14]): +VE (MEC < 25 × Cmax.tot cut-off) | hLiMTs ATP <20 x Cmax (PHH spheroids; In vitro Assay, ref Vorrink 2018): +VE (IC20 < 20 × Cmax.tot cut-off) | DILI in vitro assay prediction, Vorrink (2018) (PHH spheroids; PHH spheroids, ATP, 14 days, IC20 < 20 × Cmax.tot, ref Vorrink et al. 2018): +VE (IC20 < 20 × Cmax.tot cut-off) | hLiMTs ATP <100uM (hLiMTs [2]; [15]): +VE (IC50 threshold of 100 µM) | hLiMTs/100xCmax, Proctor (2017) (hLiMTs [2]; hLiMTs, ATP, IC50 < 100 × Cmax.tot, ref Proctor et al. 2017): +VE (IC50 < 100 × Cmax.tot) | hLiMTs/100uM, Proctor (2017) (hLiMTs [2]; hLiMTs, ATP, IC50 threshold 100 µM, ref Proctor et al. 2017): +VE (IC50 threshold of 100 µM) | DILI severity category (Chen et al. [2016]) ([3]; LTKB DILIrank category, ref Chen et al. 2016): Most | DILI severity category (Chen 2016) ([3]; human DILI classification, LTKB DILIrank, ref Chen et al. 2016): Most | DILI severity category ([3]; human DILI severity, ref Chen et al.): Most | DILI +VE (5-8), DILI -VE (-4) ([3]; ref Chen 2016): +VE | DILI severity category ([3]; ref Chen 2016): vMost-DILI-Concern | DILI Score (FDA) (1-8) [4]: 8 | Partition Hybrid HRM Score ([5]; In vitro Assay, ref Aleo 2019): +VE | Ro2 Hybrid HRM Score ([5]; In vitro Assay, ref Aleo 2019): +VE | Partition Hybrid HRM Score ≥4, Aleo (2019) [5, 16]: +VE (Partition Hybrid HRM Score ≥4) | Partition Hybrid HRM Score ≥8, Aleo (2019) [5, 16]: +VE (Partition Hybrid HRM Score ≥8) | Rule of Two hybrid HRM Score ≥3, Aleo (2019) [5, 16]: +VE (Rule of Two hybrid HRM Score ≥3) | Rule of Two hybrid HRM Score ≥8, Aleo (2019) [5, 16]: +VE (Rule of Two hybrid HRM Score ≥8) | Assigned DILI category ([6]; Chen et al. 2016 or literature alignment, ref Chen et al. 2016): 3 | In vivo DILI ([6]; […]): +VE | In vivo DILI ([6]; ref Aleo 2019): +VE | In vivo DILI ([6]; ref Dawson 2012): +VE | In vivo DILI ([6]; ref Garside 2014): +VE | In vivo DILI ([6]; ref Gustafsson 2014): +VE | In vivo DILI ([6]; ref Persson 2013): +VE | In vivo DILI ([6]; ref Proctor 2017): +VE | In vivo DILI ([6]; ref Schadt 2015): +VE | In vivo DILI ([6]; ref Vorrink 2018): +VE | In vivo DILI ([6]; ref Williams 2019): +VE | In vivo DILI ([6]; ref Xu 2008): +VE | PHH/100xCmax, Proctor (2017) (PHH; 2D PHH, ATP, IC50 < 100 × Cmax.tot, ref Proctor et al. 2017): +VE (IC50 < 100 × Cmax.tot) | PHH/100uM, Proctor (2017) (PHH; 2D PHH, ATP, IC50 threshold 100 µM, ref Proctor et al. 2017): +VE (IC50 threshold of 100 µM) | PHH ATP <100uM (PHH; [15]): +VE (IC50 threshold of 100 µM) | DILI in vitro assay prediction, Schadt (2015) ([7]; BSEP & Metabolism based, ref Schadt et al. 2015): +VE | Cellular toxicity (3T3 cells) [7, 17]: -VE | Combined Assay [7, 17]: +VE | GSH adduct HML [7, 17]: +VE | Hepatocyte cellular toxicity [7, 17]: +VE | MitoTox 3T3 [7, 17]: +VE | TDI CYP3A4 [7, 17]: +VE | hBSEP inhibition [7, 17]: +VE | Inhibition of rBsep cutoff<1& cmax u>.2 (rBsep): +VE | Inhibition of rBsep cutoff<3 (rBsep): +VE | Cluster 1-6 +VE Assay [8]: +VE | fu [9]: 0.010 | Cluser analysis (HepG2 cells; [18]): +VE | Structural based (HCI) (HepG2 cells; [18]): +VE | DILI in vitro assay prediction, Persson (2013) (HepG2 cells; Structural based (HCI), HepG2, ref Persson et al. 2013): +VE | THLE-Null [10]: +VE | THLE-Null/3A4 [10]: +VE | Bayesian Machine Learning DILI prediction, Williams (2019) ([12]; Bayesian modeling, ref Williams et al. 2019): +VE | Bayesian Machine Learning ([12]; In vitro Assay, ref Williams 2019): +VE | Cmax [13]: 4.25 µM | AC50 (HepaRG spheroids; HepaRG, read-out: ATP endpoint AC50): 19.4 µM | minimal effective concentration (HepaRG spheroids; HepaRG, read-out: ATP endpoint MEC): 11.6 µM | AC50 (HepaRG spheroids; HepaRG, read-out: HCS endpoint AC50): 23.8 µM | minimal effective concentration (HepaRG spheroids; HepaRG, read-out: HCS endpoint MEC): 5.67 µM | DILI prediction HepaRG spheroids (HCS-MEC) (HepaRG spheroids; [14]): +VE (MEC < 25 × Cmax.tot cut-off)
